As a reminder, the IC50 is the concentration that inhibits the measured activity by half. Read a high IC50 as weaker potency.

The test has as its target T1, Hexokinase-1 (Saccharomyces cerevisiae (strain ATCC 204508 / S288c), UniProt P04806).
T1 sequence (P04806 whole entry): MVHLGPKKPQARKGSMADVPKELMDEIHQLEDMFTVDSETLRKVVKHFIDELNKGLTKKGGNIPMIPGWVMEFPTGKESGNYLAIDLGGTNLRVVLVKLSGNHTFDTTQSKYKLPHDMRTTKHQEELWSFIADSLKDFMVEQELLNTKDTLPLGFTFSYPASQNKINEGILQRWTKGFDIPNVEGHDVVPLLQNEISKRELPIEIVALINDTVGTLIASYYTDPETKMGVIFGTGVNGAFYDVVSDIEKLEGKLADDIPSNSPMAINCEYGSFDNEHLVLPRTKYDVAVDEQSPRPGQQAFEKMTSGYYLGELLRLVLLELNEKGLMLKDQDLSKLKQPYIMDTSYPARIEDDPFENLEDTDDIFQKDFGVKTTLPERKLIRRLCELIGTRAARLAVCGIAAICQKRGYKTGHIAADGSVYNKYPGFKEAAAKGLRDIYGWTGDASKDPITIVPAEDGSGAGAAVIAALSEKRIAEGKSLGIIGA
Briefly: Enzyme Inhibition Assay. Particulars: pH 7.6; 25 °C. The procedure: The assay phosphotransferase activity was followed spectrophotometrically b reduction of NADP in the presence of an excess of glucose-6-phosphate-dehydrogenase (method A). ATPase activity was measured by spectrophotometric measurement of the rate of oxidation of NADH in the presence of phospho-enol-pyruvate, pyruvated-kinase and lactate-dehydrogenase (method B).
As for `O=C(NC1C(O)OC(CO)C(O)C1O)c1ccccc1[N+](=O)[O-]` (configuration not stated) [Glucosamine analog, 7], the IC50 amounted to 3 mM.

`Nc1ccccc1C(=O)NC1C(O)OC(CO)C(O)C1O` (configuration not stated) [Glucosamine analog, 9] returned an IC50 of 1 mM.

In the case of `Nc1cccc(C(=O)NC2C(O)OC(CO)C(O)C2O)c1` (configuration not stated) [Glucosamine analog, 10], the IC50 stood at 6 mM. Then `CC(=O)Nc1ccccc1C(=O)NC1C(O)OC(CO)C(O)C1O` (configuration not stated) [Glucosamine analog, 4], with 18 mM; and `O=C(NC1C(O)OC(CO)C(O)C1O)c1cccc([N+](=O)[O-])c1` (configuration not stated) [Glucosamine analog, 8], with 6 mM.

`O=C(N[C@@H]1[C@@H](O)[C@H](O)[C@@H](CO)O[C@H]1O)c1ccccc1` [Glucosamine analog, 1] had an IC50 of 7 mM. In turn, `Cc1ccccc1C(=O)N[C@@H]1[C@@H](O)[C@H](O)[C@@H](CO)O[C@@H]1O` [Glucosamine analog, 2] yielded an IC50 of 8 mM.

Source of the values: BindingDB's records for doi:10.3109/14756369709035812 (Universite Paul Sabatier, 1997).
